Measurements as given in ChEMBL document CHEMBL1201862, “PubChem BioAssay data set” (2004).
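A five-concentration, 48-hour dose response in 96-well plates underlies each endpoint, interpolated linearly between surrounding concentrations. The concentration for 50% growth inhibition is given as GI50.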 The source made the active and inactive calls. Cut-off read from the data, not from the text of the source: active = GI50 up to about 1.1 µM and inactive = higher.

Assays:
Assay in all cases: NCI anticancer screen, dose series, 48 h
UACC-257 = test system: UACC-257
NCI-H23 = test system: NCI-H23
SN12C = test system: SN12C
MOLT-4 = test system: MOLT-4
A549 = test system: A549
SNB-75 = test system: SNB-75
CAKI-1 = test system: CAKI-1
HT-29 = test system: HT-29
SK-OV-3 = test system: SK-OV-3
SF-295 = test system: SF-295
A498 = test system: A498
IGROV-1 = test system: IGROV-1
OVCAR-8 = test system: OVCAR-8
LOX IMVI = test system: LOX IMVI
HCT-116 = test system: HCT-116
HOP-92 = test system: HOP-92

Measured: GI50

COC(=O)c1cc(C)n(NC(=O)OC(C)(C)C)c1C
inactive: UACC-257 > 100 µM | NCI-H23 > 100 µM | SN12C > 100 µM | MOLT-4 > 100 µM | A549 > 100 µM | SNB-75 > 100 µM | CAKI-1 > 100 µM | HT-29 > 100 µM | SK-OV-3 > 100 µM | SF-295 > 100 µM | A498 > 100 µM | IGROV-1 > 100 µM | OVCAR-8 > 100 µM | LOX IMVI > 100 µM | HCT-116 > 100 µM

CC12CCCCC1C(=O)C2(Cl)Cl (stereo not given)
inactive: UACC-257 2.06 µM | HOP-92 1.69 µM | NCI-H23 2.39 µM | SN12C 2.98 µM | MOLT-4 1.84 µM | A549 3.18 µM | SNB-75 3.34 µM | CAKI-1 2.15 µM | HT-29 1.3 µM | SF-295 1.66 µM | A498 3.94 µM | IGROV-1 2.96 µM | OVCAR-8 2.04 µM | LOX IMVI 2.64 µM | HCT-116 1.69 µM

Cn1ncc2cc3c(Nc4ccc(Cl)cc4)cccc3nc21
inactive: UACC-257 18.9 µM | HOP-92 6.67 µM | NCI-H23 22.2 µM | SN12C 18.1 µM | MOLT-4 6.82 µM | A549 18.2 µM | SNB-75 19.4 µM | CAKI-1 15.5 µM | SK-OV-3 61.2 µM | SF-295 14.2 µM | IGROV-1 15.3 µM | OVCAR-8 19 µM | LOX IMVI 14.9 µM

COc1ccc(Cc2nccc3cc(OC)c(OC)cc23)cc1
inactive: UACC-257 16.4 µM | NCI-H23 37.2 µM | SN12C 36.9 µM | MOLT-4 39.4 µM | A549 > 100 µM | SNB-75 33.1 µM | CAKI-1 33 µM | HT-29 67.9 µM | SK-OV-3 > 100 µM | SF-295 32.4 µM | A498 42.2 µM | IGROV-1 95.1 µM | OVCAR-8 91.8 µM | HCT-116 57.4 µM

COc1ccccc1C(N)c1ccccc1 (stereo not given)
inactive: UACC-257 > 100 µM | HOP-92 36 µM | NCI-H23 > 100 µM | SN12C > 100 µM | MOLT-4 > 100 µM | A549 > 100 µM | SNB-75 95.9 µM | HT-29 > 100 µM | SK-OV-3 > 100 µM | SF-295 > 100 µM | A498 > 100 µM | IGROV-1 > 100 µM | OVCAR-8 > 100 µM | LOX IMVI > 100 µM | HCT-116 > 100 µM

C=CCN(N=O)C(=O)NCCCC(NC(C)=O)C(=O)NCc1ccccc1 (stereo not given)
inactive: UACC-257 > 100 µM | HOP-92 61.5 µM | NCI-H23 > 100 µM | SN12C > 100 µM | MOLT-4 > 100 µM | A549 > 100 µM | SNB-75 > 100 µM | CAKI-1 > 100 µM | HT-29 > 100 µM | SK-OV-3 > 100 µM | SF-295 > 100 µM | A498 > 100 µM | IGROV-1 > 100 µM | OVCAR-8 > 100 µM | LOX IMVI > 100 µM

CCn1c(=O)nc2n(-c3ccccc3)c3ccccc3nc-2c1=O
inactive: UACC-257 16.7 µM | HOP-92 18.3 µM | NCI-H23 25.4 µM | SN12C 20.6 µM | MOLT-4 17.3 µM | A549 17.2 µM | SNB-75 82.8 µM | CAKI-1 12.5 µM | SK-OV-3 > 100 µM | SF-295 24.2 µM | A498 47.4 µM | IGROV-1 22.4 µM | OVCAR-8 19.5 µM

NC(=O)c1csc(C2OC(COP(=O)(O)CP(=O)(O)OCC3OC(n4cnc5c(N)ncnc54)C(O)C3O)C(O)C2O)n1 (stereo not given)
inactive: UACC-257 > 100 µM | HOP-92 > 100 µM | NCI-H23 > 100 µM | SN12C > 100 µM | MOLT-4 > 100 µM | A549 > 100 µM | SNB-75 > 100 µM | CAKI-1 > 100 µM | HT-29 87.7 µM | SK-OV-3 > 100 µM | SF-295 53.7 µM | A498 > 100 µM | IGROV-1 > 100 µM | OVCAR-8 > 100 µM | LOX IMVI 97.1 µM
